According to patent US8273404B2, “Extraction of solvents from drug containing polymer reservoirs” (Cordis Corporation, priority 2008, dated 2012):

How the values were obtained:
[1] = In vivo release kinetics from coated stents, porcine pharmacokinetics studies; settings: combination coatings with rapamycin
Text: The topcoat is two hundred micro grams.
FIG. 61 is a graphical representation of the in vivo release kinetics of cladribine from a polymeric coating on Bx Velocity® stents, available from Cordis Corporation, implanted in a Yorkshire pig. The basecoat comprises an 85/15 ratio of PVDF and HFP and cladribine for a total combined weight of one thousand eight hundred micrograms (cladribine comprising thirty percent of the total weight). The topcoat comprises an 85/15 ratio of PVDF/HFP and no cladribine. The total weight of the topcoat is three hundred micrograms.
(§1) The basecoat is applied to Bx Velocity® stents and implanted into Yorkshire pigs.
as §1
Another critical parameter for the performance of the thrombus resistance of a device coated with cilostazol is the duration of the drug release from the coating. This is of particular significance in the two weeks after device implantation. […] The purpose of the porcine PK study is to assess the local pharmacokinetics of a drug eluting stent at a given implantation time. Normally three stents are implanted in three different coronary arteries in a pig for a given time point and then retrieved for total drug recovery analysis. The stents are retrieved at predetermined time points; namely, 1, 3 and 8 days. The stents are extracted and the total amount of drug remaining on the stents is determined by analysis utilizing HPLC (high performance liquid chromatography) for total drug amount. The difference between the original amount of drug on the stent and the amount of drug retrieved at a given time represents the amount of drug released in that period. The continuous release of drug into surrounding arterial tissue is what prevents the neointimal growth and restenosis in the coronary artery. A normal plot represents the percentage of total drug released (%, y-axis) vs. time of implantation (day, x-axis). […] Curve 8102 represents cilostazol and curve 8104 represents sirolimus. […] In this exemplary configuration, the stent 8300 is coated with two layers. […]

[2] = Liquid formulations of sirolimus and CCI-779: concentration by liquid chromatography/HPLC, visual observation; assay type: physicochemical
[3] = system: human coronary artery smooth muscle cells; assay: Anti-proliferative activity in cultured human coronary artery smooth muscle cells stimulated with two percent fetal bovine serum; assay type: cell-based; settings: for effect of the added agent on the anti-proliferative activity of rapamycin: agent added to rapamycin treated human coronary artery smooth muscle cells; for effect of the added agent on the anti-proliferative activity of rapamycin / inhibition of human coronary artery smooth muscle cell proliferation (in words): two percent fetal bovine serum; for inhibition of human coronary artery smooth muscle cell proliferation (in words): agent alone
Text: The multiple curves represent various concentrations of mycophenolic acid ranging from zero to one thousand nanomolar concentrations.
FIG. 58 illustrates, in graphical format, the anti-proliferative activity of cladribine in non-synchronized cultured human coronary artery smooth muscle cells stimulated with two percent fetal bovine serum.
The multiple curves represent various concentrations of cladribine ranging from zero to nine hundred nanomolar concentrations.
(§2) The multiple curves represent various concentrations of topotecan ranging from zero to three hundred nanomolar concentrations.
(§3) The multiple curves represent various concentrations of etoposide ranging from zero to eight hundred nanomolar concentrations.
The multiple curves represent various concentrations of Panzem® ranging from zero to 100 micromolar concentrations.
Curve 8702 illustrates the percent inhibition for various concentrations. In FIG. 88, the six curves 8802, 8804, 8806, 8808, 8810 and 8812 represent various concentrations of PX867 with various concentrations of sirolimus. […] More specifically, curve 8812 illustrates the percent inhibition for a 240 nM PX-867 concentration. […] This may be compared to curve 8804 which represents a 15 nM PX-867 concentration.

[4] = Injectable liquid formulations of paclitaxel: composition and observation; assay type: physicochemical
Text: This solution remained clear.

[5] = system: human coronary artery smooth muscle cell; assay: Inhibition of coronary artery smooth muscle cell proliferation by trichostatin A, in vitro cell culture study; assay type: cell-based; settings: read-out: anti-proliferative IC50
Text: FIG. 51 is a graph of the inhibition of coronary artery smooth muscle cells by trichostatin A in a cell culture study.

tumor cell lines = tumor cell lines (Woo et al.); cited from earlier work
[6] = In vitro release kinetics from coated stents; assay type: physicochemical; settings: single-layer sirolimus/cilostazol coating of FIG. 83
[7] = system: human coronary artery smooth muscle cell; assay: MTS cytotoxicity assay of Panzem; assay type: cell-based; settings: concentrations up to 30,000.00 nanomolar
Text: Typically, a control is utilized to determine baseline toxicity.

[8] = Cell viability assay (cytotoxicity of topotecan, etoposide); assay type: cell-based
Text: as §2, §3

## CO[C@H]1C[C@@H]2CC[C@@H](C)[C@@](O)(O2)C(=O)C(=O)N2CCCC[C@H]2C(=O)O[C@H]([C@H](C)C[C@@H]2CC[C@@H](O)[C@H](OC)C2)CC(=O)[C@H](C)/C=C(\C)[C@@H](O)[C@@H](OC)C(=O)[C@H](C)C[C@H](C)/C=C/C=C/C=C/1C [rapamycin]
[1]
  relative elution from polymeric stent coating in vivo (in words): slower release rate than that of mycophenolic acid
[2]; 4 mg/ml PEG 200 formulation
  sirolimus concentration relative to the solubility of sirolimus in water: about four hundred to about one thousand times higher

## COC[C@H]1OC(=O)/C(=C\N2CCCC2)C2=C(O)C(=O)C3=C([C@H](OC(C)=O)C[C@]4(C)C(=O)CC[C@@H]34)[C@]21C [PX-867]
[3]; PX867 alone at a concentration of about 10^−6
  percent inhibition of coronary artery smooth muscle cell proliferation: close to one hundred percent inhibition
[3]
  effect of the added agent on the anti-proliferative activity of rapamycin: strong synergistic effect

## CC(=O)O[C@H]1C(=O)[C@@]2(C)[C@H]([C@H](OC(=O)c3ccccc3)[C@]3(O)C[C@H](OC(=O)[C@H](O)[C@@H](NC(=O)c4ccccc4)c4ccccc4)C(C)=C1C3(C)C)[C@]1(OC(C)=O)CO[C@@H]1C[C@@H]2O [paclitaxel]
[4]
  paclitaxel concentration as true liquid formulation: up to 2.5 mg/ml
[4]; 2.5 mg/ml formulation
  fold higher than the solubility of paclitaxel in water: about 1000 fold

## Nc1nc(Cl)nc2c1ncn2[C@H]1C[C@H](O)[C@@H](CO)O1 [cladribine, 2-chlorodeoxyadenosine]
[1]
  relative elution from polymeric stent coating in vivo (in words): elutes more rapidly than rapamycin
[3]
  effect of the added agent on the anti-proliferative activity of rapamycin: potentiate the anti-proliferative activity of rapamycin
  inhibition of human coronary artery smooth muscle cell proliferation (in words): completely inhibits human coronary artery smooth muscle cell proliferation

## CC(/C=C/C(=O)NO)=C\[C@@H](C)C(=O)c1ccc(N(C)C)cc1 [trichostatin A]
[5]
  IC50: ~6 nM
Tumor cell lines
  anti-proliferative IC50's: low nM range

## COc1c(C)c2c(c(O)c1C/C=C(\C)CCC(=O)O)C(=O)OC2 [mycophenolic acid]
[1]
  relative elution from polymeric stent coating in vivo (in words): elutes more completely over a shorter duration than the rapamycin
[3]
  effect of the added agent on the anti-proliferative activity of rapamycin: potentiates the anti-proliferative activity of rapamycin

## O=C1CCc2cc(OCCCCc3nnnn3C3CCCCC3)ccc2N1 [cilostazol, 6[4-(1-cyclohexyl-1H-tetrazol-5-yl)-butoxy]-3,4-dihydro-2-(1H)-quinolinone]
[6]
  release in vitro: ~35%

## CO[C@H]1C[C@@H]2CC[C@@H](C)[C@@](O)(O2)C(=O)C(=O)N2CCCC[C@H]2C(=O)O[C@H]([C@H](C)C[C@@H]2CC[C@@H](OC(=O)C(C)(CO)CO)[C@H](OC)C2)CC(=O)[C@H](C)/C=C(\C)[C@@H](O)[C@@H](OC)C(=O)[C@H](C)C[C@H](C)/C=C/C=C/C=C/1C [CCI-779]
[2]; ethanol, Vitamin E TPGS, water
  concentration of CCI-779 in the final solution (HPLC): 15000 µg/mL

## COc1cc2c(cc1O)CC[C@@H]1[C@@H]2CC[C@]2(C)[C@@H](O)CC[C@@H]12 [Panzem®, 2-methoxyestradiol]
[3]
  effect of the added agent on the anti-proliferative activity of rapamycin: increases the percent of inhibition of rapamycin alone
  inhibition of human coronary artery smooth muscle cell proliferation (in words): extremely effective inhibitor
[7]
  cell survival in MTS assay: do not reduce human coronary artery smooth muscle cell survival

## CC[C@@]1(O)C(=O)OCc2c1cc1n(c2=O)Cc2cc3c(CN(C)C)c(O)ccc3nc2-1 [topotecan]
[3]
  effect of the added agent on the anti-proliferative activity of rapamycin: potentiate the anti-proliferative activity of rapamycin
[8]; concentrations up to one micromolar
  cytotoxicity in cell viability assay: non-cytotoxic

## COc1cc([C@@H]2c3cc4c(cc3[C@@H](O[C@@H]3O[C@@H]5CO[C@@H](C)O[C@H]5[C@H](O)[C@H]3O)[C@H]3COC(=O)[C@H]23)OCO4)cc(OC)c1O [etoposide]
[3]
  effect of the added agent on the anti-proliferative activity of rapamycin: potentiate the anti-proliferative activity of rapamycin
[8]; concentrations up to ten micromolar
  cytotoxicity in cell viability assay: non-cytotoxic
